Data from patent publication US10770169B2, “Method of providing a treatment to a subject based on a dynamic pathway map” (THE REGENTS OF THE UNIVERSITY OF CALIFORNIA, priority 2010, dated 2020).
Read-outs that look alike come from different tables or passages of the source.

Assays:
[1] = test system: panel of 55 breast cancer cell lines; assay: Cell growth inhibition assay (Cell Titer Glo, 72 h, 9 doses; GI50, TGI, LC50); format: cell-based, human; details: Homo sapiens, read-out: GI50 (converted)
[2] = test system: luminal, basal, claudin-low and ERBB2AMP breast cancer cell lines; assay: Associations of clinically relevant subtypes and response (non-parametric ANOVA or t-test on GI50 ranks); format: cell-based, human; details: Table 6; most sensitive subtype, FDR p<0.20
Outline: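 Significance was set at FDR p<0.20 after combining p-values across three test sets. Subtype–response associations came from rank-based non-parametric ANOVA or t-tests on GI50. For three-class comparisons, post-hoc tests of each group against the rest identified the most sensitive group, with FDR correction.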

Q: How did the GI50 ([1]; 600MPE cell line, censored GI50 values) turn out when Cc1[nH]c2ccccc2c1CCNCc1ccc(/C=C/C(=O)NO)cc1 [LBH589] was run?
A: The GI50 was 186 nM.

Q: What about the GI50 ([1]; AU565, AU565 cell line, censored GI50 values) of the same compound?
A: The GI50 was 105 nM.

Q: And the GI50 ([1]; AU565, cell line AU565)?
A: The GI50 was 105 nM.

Q: And the GI50 ([1]; BT-20, BT20 cell line, censored GI50 values)?
A: Its GI50 is 389 nM.

Q: And the GI50 ([1]; BT-20, cell line BT20)?
A: Its GI50 is 389 nM.

Q: What about the GI50 ([1]; BT-474, BT474 cell line, censored GI50 values) of the same compound?
A: The GI50 was 34.7 nM.

Q: What about the GI50 ([1]; BT-474, cell line BT474) of the same compound?
A: Its GI50 is 34.7 nM.

Q: What about the GI50 ([1]; BT-483, BT483 cell line, censored GI50 values) of the same compound?
A: The GI50 was 72.4 nM.

Q: What about the GI50 ([1]; BT-483, cell line BT483) of the same compound?
A: The GI50 was 72.4 nM.

Q: And the GI50 ([1]; CAMA-1, CAMA1 cell line, censored GI50 values)?
A: The GI50 was 61.7 nM.

Q: And the GI50 ([1]; CAMA-1, cell line CAMA1)?
A: Its GI50 is 61.7 nM.

Q: And the GI50 ([1]; HCC38, HCC38 cell line, censored GI50 values)?
A: The GI50 was 35.5 nM.

Q: What about the GI50 ([1]; HCC38, cell line HCC38) of the same compound?
A: Its GI50 is 35.5 nM.

Q: What about the GI50 ([1]; HCC70, HCC70 cell line, censored GI50 values) of the same compound?
A: Its GI50 is 77.6 nM.

Q: And the GI50 ([1]; HCC70, cell line HCC70)?
A: Its GI50 is 77.6 nM.

Q: And the GI50 ([1]; HCC1143, HCC1143 cell line, censored GI50 values)?
A: Its GI50 is 83.2 nM.

Q: What about the GI50 ([1]; HCC1143, cell line HCC1143) of the same compound?
A: Its GI50 is 83.2 nM.

Q: And the GI50 ([1]; HCC1187, HCC1187 cell line, censored GI50 values)?
A: Its GI50 is 174 nM.

Q: What about the GI50 ([1]; HCC1187, cell line HCC1187) of the same compound?
A: The GI50 was 174 nM.

Q: And the GI50 ([1]; HCC1419, HCC1419 cell line, censored GI50 values)?
A: Its GI50 is 58.9 nM.

Q: And the GI50 ([1]; HCC1419, cell line HCC1419)?
A: The GI50 was 58.9 nM.

Q: What about the GI50 ([1]; HCC1428, HCC1428 cell line, censored GI50 values) of the same compound?
A: The GI50 was 135 nM.

Q: What about the GI50 ([1]; HCC1428, cell line HCC1428) of the same compound?
A: Its GI50 is 135 nM.

Q: And the GI50 ([1]; HCC1500, HCC1500 cell line, censored GI50 values)?
A: Its GI50 is 162 nM.

Q: What about the GI50 ([1]; HCC1500, cell line HCC1500) of the same compound?
A: The GI50 was 162 nM.

Q: And the GI50 ([1]; HCC1806, HCC1806 cell line, censored GI50 values)?
A: The GI50 was 151 nM.

Q: And the GI50 ([1]; HCC1806, cell line HCC1806)?
A: Its GI50 is 151 nM.

Q: And the GI50 ([1]; HCC1937, HCC1937 cell line, censored GI50 values)?
A: The GI50 was 191 nM.

Q: What about the GI50 ([1]; HCC1937, cell line HCC1937) of the same compound?
A: Its GI50 is 191 nM.

Q: And the GI50 ([1]; HCC1954, HCC1954 cell line, censored GI50 values)?
A: Its GI50 is 372 nM.

Q: What about the GI50 ([1]; HCC1954, cell line HCC1954) of the same compound?
A: Its GI50 is 372 nM.

Q: And the GI50 ([1]; HCC2185 cell line, censored GI50 values)?
A: Its GI50 is 69.2 nM.

Q: What about the GI50 ([1]; HCC3153 cell line, censored GI50 values) of the same compound?
A: Its GI50 is 295 nM.

Q: What about the GI50 ([1]; MCF7, MCF7 cell line, censored GI50 values) of the same compound?
A: Its GI50 is 79.4 nM.

Q: And the GI50 ([1]; MCF7, cell line MCF7)?
A: The GI50 was 79.4 nM.

Q: And the GI50 ([1]; MDA-MB-134-VI, MDAMB134VI cell line, censored GI50 values)?
A: The GI50 was 66.1 nM.

Q: What about the GI50 ([1]; MDA-MB-175-VII, MDAMB175VII cell line, censored GI50 values) of the same compound?
A: The GI50 was 389 nM.

Q: And the GI50 ([1]; MDA-MB-361, MDAMB361 cell line, censored GI50 values)?
A: The GI50 was 50.1 nM.

Q: What about the GI50 ([1]; MDA-MB-361, cell line MDAMB361) of the same compound?
A: The GI50 was 50.1 nM.

Q: What about the GI50 ([1]; MDA-MB-415, MDAMB415 cell line, censored GI50 values) of the same compound?
A: Its GI50 is 39.8 nM.

Q: What about the GI50 ([1]; MDA-MB-415, cell line MDAMB415) of the same compound?
A: The GI50 was 39.8 nM.

Q: And the GI50 ([1]; MDA-MB-436, MDAMB436 cell line, censored GI50 values)?
A: Its GI50 is 251 nM.

Q: What about the GI50 ([1]; MDA-MB-436, cell line MDAMB436) of the same compound?
A: Its GI50 is 251 nM.

Q: And the GI50 ([1]; MDA-MB-453, MDAMB453 cell line, censored GI50 values)?
A: Its GI50 is 49 nM.

Q: And the GI50 ([1]; MDA-MB-453, cell line MDAMB453)?
A: The GI50 was 49 nM.

Q: What about the GI50 ([1]; MDA-MB-468, MDAMB468 cell line, censored GI50 values) of the same compound?
A: The GI50 was 234 nM.

Q: What about the GI50 ([1]; MDA-MB-468, cell line MDAMB468) of the same compound?
A: Its GI50 is 234 nM.

Q: And the GI50 ([1]; SK-BR-3, SKBR3 cell line, censored GI50 values)?
A: Its GI50 is 55 nM.

Q: What about the GI50 ([1]; SK-BR-3, cell line SKBR3) of the same compound?
A: Its GI50 is 55 nM.

Q: What about the GI50 ([1]; SUM52PE, SUM52PE cell line, censored GI50 values) of the same compound?
A: Its GI50 is 170 nM.

Q: And the GI50 ([1]; SUM52PE, cell line SUM52PE)?
A: Its GI50 is 170 nM.

Q: What about the GI50 ([1]; SUM149PT, SUM149PT cell line, censored GI50 values) of the same compound?
A: The GI50 was 316 nM.

Q: What about the GI50 ([1]; SUM149PT, cell line SUM149PT) of the same compound?
A: Its GI50 is 316 nM.

Q: And the GI50 ([1]; SUM185PE, SUM185PE cell line, censored GI50 values)?
A: The GI50 was 77.6 nM.

Q: And the GI50 ([1]; SUM185PE, cell line SUM185PE)?
A: Its GI50 is 77.6 nM.

Q: And the GI50 ([1]; SUM1315MO2, SUM1315MO2 cell line, censored GI50 values)?
A: The GI50 was 251 nM.

Q: And the GI50 ([1]; SUM-159-PT, SUM159PT cell line, censored GI50 values)?
A: The GI50 was 132 nM.

Q: What about the GI50 ([1]; SUM-159-PT, cell line SUM159PT) of the same compound?
A: The GI50 was 132 nM.

Q: What about the GI50 ([1]; T47D, T47D cell line, censored GI50 values) of the same compound?
A: Its GI50 is 151 nM.

Q: What about the GI50 ([1]; T47D, cell line T47D) of the same compound?
A: The GI50 was 151 nM.

Q: What about the GI50 ([1]; UACC-812, UACC812 cell line, censored GI50 values) of the same compound?
A: The GI50 was 129 nM.

Q: And the GI50 ([1]; UACC-812, cell line UACC812)?
A: Its GI50 is 129 nM.

Q: And the GI50 ([1]; ZR-75-1, ZR751 cell line, censored GI50 values)?
A: Its GI50 is 195 nM.

Q: And the GI50 ([1]; ZR-75-1, cell line ZR751)?
A: Its GI50 is 195 nM.

Q: And the GI50 ([1]; ZR-75B, ZR75B cell line, censored GI50 values)?
A: The GI50 was 83.2 nM.

Q: And the GI50 ([1]; ZR-75B, cell line ZR75B)?
A: The GI50 was 83.2 nM.

Q: And the GI50 ([1]; cell line 600MPE)?
A: The GI50 was 186 nM.

Q: What about the GI50 ([1]; cell line HCC2185) of the same compound?
A: The GI50 was 69.2 nM.

Q: And the GI50 ([1]; cell line HCC3153)?
A: The GI50 was 295 nM.

Q: And the GI50 ([1]; cell line MDAMB134V)?
A: The GI50 was 66.1 nM.

Q: And the GI50 ([1]; cell line MDAMB175V)?
A: Its GI50 is 389 nM.

Q: What about the GI50 ([1]; cell line SUM1315MO) of the same compound?
A: Its GI50 is 251 nM.

Q: And the Subtype specificity [2]?
A: The Subtype specificity was “Luminal”.
